Source: PubChem BioAssay (NCI)
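Abbreviation: GI50, concentration required for 50% inhibition of growth. TGI: concentration producing complete growth inhibition.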

How the values were obtained:
Test in all cases: growth of human tumour cells (NCI), 384-well format
RPMI-8226 leukemia = test system: RPMI-8226 leukemia
HS 578T breast = test system: HS 578T breast
LOX IMVI melanoma = test system: LOX IMVI melanoma
SK-OV-3 ovarian = test system: SK-OV-3 ovarian
OVCAR-5 ovarian = test system: OVCAR-5 ovarian
HOP-62 NSCLC = test system: HOP-62 NSCLC
CCRF-CEM leukemia = test system: CCRF-CEM leukemia
HL-60(TB) leukemia = test system: HL-60(TB) leukemia
NCI-H23 lung = test system: NCI-H23 lung
T-47D breast = test system: T-47D breast
A549 NSCLC = test system: A549 NSCLC
CAKI-1 renal = test system: CAKI-1 renal
786-0 renal = test system: 786-0 renal

C[C@@H](O)[C@H](NC(=O)N[C@@H](CC(N)=O)c1nc([C@@H](N)CO)no1)C(=O)O
GI50 (RPMI-8226 leukemia): > 100 µM
TGI (RPMI-8226 leukemia): > 100 µM
GI50 (HS 578T breast): > 100 µM
TGI (HS 578T breast): > 100 µM
GI50 (LOX IMVI melanoma): > 100 µM
TGI (LOX IMVI melanoma): > 100 µM
GI50 (SK-OV-3 ovarian): > 100 µM
TGI (SK-OV-3 ovarian): > 100 µM
GI50 (OVCAR-5 ovarian): > 100 µM
TGI (OVCAR-5 ovarian): > 100 µM
GI50 (HOP-62 NSCLC): > 100 µM
TGI (HOP-62 NSCLC): > 100 µM
GI50 (CCRF-CEM leukemia): > 100 µM
TGI (CCRF-CEM leukemia): > 100 µM
GI50 (HL-60(TB) leukemia): > 100 µM
TGI (HL-60(TB) leukemia): > 100 µM
GI50 (NCI-H23 lung): > 100 µM
TGI (NCI-H23 lung): > 100 µM
GI50 (T-47D breast): > 100 µM
TGI (T-47D breast): > 100 µM
GI50 (A549 NSCLC): > 100 µM
TGI (A549 NSCLC): > 100 µM
GI50 (CAKI-1 renal): > 100 µM
TGI (CAKI-1 renal): > 100 µM
GI50 (786-0 renal): > 100 µM
TGI (786-0 renal): > 100 µM
